One data set has as its system MCF-10A cells. Kind of data set: MTT anti-proliferative assay, MCF-10A. Format: cell-based, human. To be noted: Homo sapiens, MCF-10A, 48 h, normal breast epithelial cells, Table 2 prints no unit, μM. As to the method: (§1) All cell lines were purchased from Cell Bank of Shanghai Institute of Biochemistry and Cell Biology, Chinese Academy of Sciences (Shanghai, China). Human breast carcinoma cells (MCF-7 and MCF-7/DOX), breast epithelial cells (MCF-10A) and normal human liver cells (LO2) were maintained in RPMI-1640 medium. All cells were supplemented with 12% fetal bovine serum containing 50 μg/ml penicillin and 50 μg/ml streptomycin. Cells were grown to 80% confluency in a tissue culture flask at 37 °C in a humidified atmosphere containing 5% CO2, and then were trypsinized with 1 × Trypsin-Versene and split. The MCF-7/DOX cell line we used was established from its parental cell line MCF-7 cell by gradually increasing the concentration of DOX to which the cells were exposed in a stepwise manner over a period of 8 months. […] The cells were incubated in drug-free medium for at least 1 week before use.
(§2) Cells (MCF-7, MCF-7/DOX, MCF-10A, LO2) were seeded in 96-well plates at a density of 3,000–6,000 cells per well. The cells were incubated overnight (16 h) in a humidified 5% CO2 incubator at 37 °C. After media removal, different concentrations of test compounds were added in triplicate to the plates in 200 μL of fresh media and were incubated with the cells at 37 °C for 48 h. […] Cell viability was evaluated using 3-(4, 5-dimethylthiazolyl)-2,5-diphenyltetrazoliumbromide (MTT). The absorbance was read by an ELISA reader (SpectraMax Plus384, Molecular Devices, Sunnyvale, CA) at a test wavelength of 570 nm and a reference wavelength of 630 nm. Cell viability was calculated using the following formula: […]
(Tetrazolium assays rely on reduction of a dye to a coloured formazan, in cell work by metabolically active cells.)

Data set [1] has as its system MCF-7/DOX cells. In words: MTT anti-proliferative assay, MCF-7/DOX. It is filed as cell-based, human. Particulars: for IC50: Homo sapiens, MCF7-DOX, MTT, 48 h, read-out: MCF-7/DOX IC50 ± SD. Here is the method:
as §1, §2

Data set [2] concerns MCF-7 cells. Kind of data set: MTT anti-proliferative assay, MCF-7. It is filed as cell-based, human. To be noted: Homo sapiens, MCF7, 48 h, read-out: MCF-7 IC50 ± SD. As to the method:
as §1, §2

The subject of another data set is LO2 cells. In words: MTT anti-proliferative assay, LO2. It is filed as cell-based. To be noted: Homo sapiens, L02, 48 h, normal human liver cells, Table 2 prints no unit, μM. As to the method:
as §1, §2

The next data set relates to Bcl-2 gene. Kind of data set: Quantitative real-time RT-PCR of Bcl-2. It is filed as cell-based, human. Particulars: MCF-7 and MCF-7/DOX cells, 24 h. As to the method: (§3) Levels of mRNA expression were analyzed with the RT-PCR assay, with total RNA isolated from MCF-7 or MCF-7/DOX cells using an EASYspin Plus tissue/cell RNA extraction kit (Aidlab Biotechnologies Co. Ltd). RNA was quantified by measuring absorption at 260 nm and 1 μg of RNA was reverse transcribed to cDNA using the Transcriptor First Strand cDNA Synthesis Kit (Roche Diagnostics, Basel, Switzerland). Thermal cycling conditions included 95 °C initial denaturation for 5 min, followed by 40 cycles of denaturation (10 s at 95 °C), annealing (15 s at 60 °C) and extension (15 s at 72 °C with a single fluorescence measurement), a melt curve program (60–95 °C with a 0.11 °C/s heat increase and continuous fluorescence measurement) and a cooling step to 40 °C. The Δ cycle threshold method was used for the calculation of relative differences in mRNA abundance with a LightCycler 480 (Roche Molecular Biochemicals, Mannheim, Germany). The data were normalized to the expression of GAPDH. The results were expressed as fold-changes. The RT-PCR primers that were used in this study are listed in the supporting information.

The subject of data set [3] is MCF-7/DOX cells. Kind of data set: ROS detection by DCFH-DA flow cytometry, MCF-7/DOX. It is filed as cell-based, human. To be noted: 4 μM, 24 h. As to the method: (§4) MCF-7 or MCF-7/DOX cells were seeded at a density of 3 × 10^5 cells per well of a 6-well plate and treated with various concentrations of 6b (0, 1, 2, 4 μM) or 4 μM curcumin for 24 h. DCFH-DA was dissolved in serum-free medium and diluted to a final concentration of 10 μM. After treatment with 6b, the growth media was replaced with serum-free medium containing the probe. After incubation for 20 min at 37 °C, cells were washed with serum-free medium twice, digested by trypsin and resuspended in pre-warmed PBS buffer. The samples were then subjected to a flow cytometry assay using a BD FACSCalibur flow cytometer (Becton & Dickinson Company, Franklin Lakes, NJ).

Data set [4] relates to MCF-7 cells. Kind of data set: ROS detection by DCFH-DA flow cytometry, MCF-7. To be noted: MCF-7, 4 μM, 24 h. It is filed as cell-based, human. Here is the method:
as §4
(A flow cytometer gives signals particle by particle.)

In a further data set the test system is Cyclin D1 gene. Kind of data set: Quantitative real-time RT-PCR of Cyclin D1. It is filed as cell-based, human. Particulars: MCF-7 and MCF-7/DOX cells, 24 h. As to the method:
as §3
(Quantitative PCR measures a nucleic acid by following its amplification.)

The test system of data set [5] is MCF-7/DOX cells. In words: Annexin V-APC/7-AAD flow cytometry of apoptosis, MCF-7/DOX. Format: cell-based, human. To be noted: 4 μM, 24 h. Here is the method: (§5) MCF-7, MCF-7/DOX or MCF-10A cells, at a density of 2.5 × 10^5 cells per well, were cultured in regular growth medium in 6-well plates for 24 h and treated in duplicate with different concentrations of 6b or curcumin for 24 h. The cells were harvested, washed and stained with 5 μL of Annexin V-APC and 5 μL of 7-AAD at room temperature for 15 min. Cells were then analyzed by flow cytometry (488 nm excitation and 600 nm emission filters) using a BD FACSCalibur flow cytometer (Becton & Dickinson Company, Franklin Lakes, NJ).

Data set [6] concerns MCF-7/DOX cells. Kind of data set: Flow cytometry of the cell cycle, MCF-7/DOX. Format: cell-based, human. To be noted: 4 μM, 24 h. Here is the method: (§6) MCF-7 or MCF-7/DOX cells were plated in 6-well culture plates (1.5 × 10^5 cells per well). After incubation overnight, various concentrations of 6b or curcumin were added and cells were incubated for 24 h. Cells were harvested, washed with cold PBS, and incubated with pre-cooled 70% ethanol for a minimum of 4 h at 4 °C to fix them. The cells were then centrifuged, carefully aspirated from the supernatant, and re-suspended in a propidium iodide (final concentration, 40 μg/ml) and RNase A (final concentration, 100 μg/ml) solution at a final cell density of 0.5 × 10^6 cells/ml. The suspension was incubated at 37 °C for 30 min prior to analysis by flow cytometry.

A further data set concerns Bax gene. In words: Quantitative real-time RT-PCR of Bax. It is filed as cell-based, human. To be noted: MCF-7 and MCF-7/DOX cells, 24 h. Here is the method: as §3
Data set [7] relates to MCF-7 cells. In words: Annexin V-APC/7-AAD flow cytometry of apoptosis, MCF-7. It is filed as cell-based, human. Particulars: 4 μM, 24 h. Here is the method: as §5
Data set [8] has as its system MCF-7 cells. Kind of data set: Flow cytometry of the cell cycle, MCF-7. Particulars: MCF-7, 4 μM, 24 h. Format: cell-based, human. Here is the method: as §6

Here are results for four compounds from article PMC5387716, “Discovery of monocarbonyl curcumin-BTP hybrids as STAT3 inhibitors for drug-sensitive and drug-resistant breast cancer therapy” (Scientific Reports, 2017).

Broadly, the melting point is the temperature of the solid-liquid transition.

Take `COc1cccc2c1C(=O)c1c(O)c3c(c(O)c1C2=O)C[C@@](O)(C(=O)CO)C[C@@H]3O[C@H]1C[C@H](N)[C@H](O)[C@H](C)O1` [DOX, doxorubicin, reference compound]: the IC50 with MCF-10A cells came out at 0.98 ± 0.17 µM; in the data set with MCF-7/DOX cells [1], 64.7 ± 3.8 µM; with MCF-7 cells [2], 0.98 ± 0.08 µM; with LO2 cells, 0.82 ± 0.12 µM. Further, the “resistance to DOX compared with parental DOX-sensitive cells” value in the data set on MCF-7/DOX cells [1] (MCF-7/DOX vs MCF-7) is recorded as 66.02 fold.
`O=C(/C=C/c1ccc(C(F)(F)F)cc1)N1CCN(C(=O)C2=Cc3cc(Br)ccc3S2(=O)=O)CC1` [Compound 6i, (E)-1-(4-(5-bromo-1,1-dioxidobenzo[b]thiophene-2-carbonyl)piperazin-1-yl)-3-(4-(trifluoromethyl)phenyl)prop-2-en-1-one] had a melting point of 245 to 247 °C. Further, in the data set on MCF-7/DOX cells [1], the IC50 came out at 0.87 ± 0.12 µM. The IC50 with MCF-7 cells [2] came to 0.67 ± 0.14 µM.
Take `COc1cc(/C=C/C(=O)CC(=O)/C=C/c2ccc(O)c(OC)c2)ccc1O` [curcumin]: the “Bcl-2 gene level (in words)” value in the data set with Bcl-2 gene was “little effect”. Further, the ROS generation entry with MCF-7/DOX cells [3] and in the data set on MCF-7 cells [4] was “little effect” in each case. For the same compound, the IC50 was 32.7 ± 4 µM with MCF-7/DOX cells [1] and 37.7 ± 8.2 µM with MCF-7 cells [2]. In addition, the “Cyclin D1 gene level (in words)” value in the data set with Cyclin D1 gene is “little effect”. Also, the apoptosis rate result in the data set on MCF-7/DOX cells [5] and with MCF-7 cells [7] was “small effect” each time. Further, the “effect on the cell cycle” value with MCF-7/DOX cells [6] and in the data set with MCF-7 cells [8] was “little effect” throughout. Moreover, in the data set with Bax gene, the “Bax gene level (in words)” value is given as “little effect”.
For `O=C(/C=C/c1ccccn1)N1CCN(C(=O)C2=Cc3cc(Br)ccc3S2(=O)=O)CC1` [Compound 6f, (E)-1-(4-(5-bromo-1,1-dioxidobenzo[b]thiophene-2-carbonyl)piperazin-1-yl)-3-(pyridin-2-yl)prop-2-en-1-one], the melting point lay within 241 to 242 °C. Moreover, the IC50 with MCF-7/DOX cells [1] stood at 1.89 ± 0.27 µM. In addition, in the data set with MCF-7 cells [2], the IC50 is 1.08 ± 0.06 µM.
